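Five concentrations, 48 hours, 96-well plates. GI50 = concentration required for 50% inhibition of growth. TGI denotes the concentration required for complete inhibition of growth.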
What was measured:
Test in all cases: NCI anticancer screen, dose series, 48 h
ACHN renal = test system: ACHN renal
HS 578T breast = test system: HS 578T breast
NCI-H226 lung = test system: NCI-H226 lung
MDA-MB-231 breast = test system: MDA-MB-231 breast
SR leukemia = test system: SR leukemia
SNB-19 CNS = test system: SNB-19 CNS
NCI/ADR-RES ovarian = test system: NCI/ADR-RES ovarian
SF-539 CNS = test system: SF-539 CNS
RXF 393 renal = test system: RXF 393 renal
DU-145 prostate = test system: DU-145 prostate

Structure (SMILES) | GI50 (ACHN renal) [µM] | TGI (ACHN renal) [µM] | GI50 (HS 578T breast) [µM] | TGI (HS 578T breast) [µM] | GI50 (NCI-H226 lung) [µM] | TGI (NCI-H226 lung) [µM] | GI50 (MDA-MB-231 breast) [µM] | TGI (MDA-MB-231 breast) [µM] | GI50 (SR leukemia) [µM] | TGI (SR leukemia) [µM] | GI50 (SNB-19 CNS) [µM] | TGI (SNB-19 CNS) [µM] | GI50 (NCI/ADR-RES ovarian) [µM] | TGI (NCI/ADR-RES ovarian) [µM] | GI50 (SF-539 CNS) [µM] | TGI (SF-539 CNS) [µM] | GI50 (RXF 393 renal) [µM] | TGI (RXF 393 renal) [µM] | GI50 (DU-145 prostate) [µM] | TGI (DU-145 prostate) [µM]
O=C1NC(=NCCc2ccccc2Cl)S/C1=C\c1ccc2ncccc2c1 | 6.5 | > 25 | 7.03 | > 17 | 7.61 | > 25 | 10.3 | > 25 | 0.622 | 2.25 | 7.4 | > 25 | 7.73 | > 25 | 3.13 | 13.2 | 4.85 | > 25 | 6.9 | > 25
COc1ccc(C(=O)Nc2cccc(C3CC(=O)c4c(cc(OC)c(OC)c4OC)O3)c2)cc1 (stereo not drawn) | 2.57 | > 100 | 2 | 42.4 | 2.6 | 43.1 | 2.06 | > 100 | 0.171 | > 100 | 1.01 | > 100 | 0.629 | 17.6 | 1.66 | 4.65 | 1.64 | 5.48 | 2.88 | > 100
Cc1c2c(nn1-c1ccc(S/N=C3\SCC(=O)CN3c3ccccc3)cc1)-c1ccccc1CC2 | 24.1 | > 50 | 15.5 | > 50 | 9.75 | 27 | 15.4 | > 50 | 1.88 | > 50 | > 50 | > 50 | 14.5 | > 50 | 22.4 | > 50 | 31.5 | > 50 | 43.9 | > 50
O=Nc1c(-c2cccc([N+](=O)[O-])c2)nc2ncccn12 | 8.73 | 23.2 | 12.8 | 47.4 | 16.2 | 37 | 16.4 | 35.2 | 0.218 | 2.22 | 18 | 39.6 | 15.9 | 71.7 | 15.8 | 31 | – | 3.01 | 4.24 | 16.8
Nc1nc(Cl)nc2c1ncn2C1O[C@H](CO)[C@@H](O)[C@@H]1F (stereo partly drawn) | 0.33 | – | > 94.2 | > 100 | 0.329 | 37.5 | – | > 100 | 0.387 | > 100 | 0.216 | > 100 | 0.0498 | > 100 | 3.64 | > 37.9 | 1.48 | 35.3 | 0.332 | > 32.4
CCOC1NC(=O)Oc2ccccc21 (stereo not drawn) | – | > 100 | – | > 100 | – | > 100 | – | > 100 | – | > 100 | – | > 100 | – | > 100 | – | > 100 | – | > 100 | – | > 100
CCOc1ccc2c(c1)/C(=C\C=C\C1CC(C)C3CC(OCC)CCC3N1CC)CC(C)N2CC (stereo not drawn) | 1.43 | 2.95 | 1.59 | 6.81 | 1.06 | 2.79 | 1.22 | 2.92 | 0.412 | 2.75 | 0.512 | 1.97 | 3.14 | > 100 | 1.27 | 2.68 | 1.17 | 2.59 | 0.991 | 2.25
NC(=O)NC(=O)CI | 1.78 | 3.39 | 15.8 | 47.8 | 6.79 | 28.2 | 6.99 | 19.9 | 2.52 | 7.69 | 34 | 97.7 | 18.7 | 41.9 | 9.5 | 23 | 5.97 | 18.3 | 17.7 | 32.3
Cc1cc(S(N)(=O)=O)c(S/C(=N\NS(=O)(=O)c2ccc(Cl)cc2)c2ccc(Cl)cc2)cc1Cl | 38.6 | > 100 | 79.7 | > 100 | 92.4 | > 100 | > 100 | > 100 | 29.1 | > 100 | > 100 | > 100 | > 100 | > 100 | > 100 | > 100 | > 100 | > 100 | > 100 | > 100
Cn1cccc1-c1cc(-c2ccc(Br)cc2)nc(N)c1C#N | > 100 | > 100 | > 100 | > 100 | 63.8 | > 100 | 69.9 | > 100 | 3.42 | 20.4 | > 100 | > 100 | > 100 | > 100 | > 100 | > 100 | 30.3 | > 100 | > 100 | > 100
COc1ccccc1Nc1nc(-c2cc3cccc(C(F)(F)F)c3oc2=O)cs1 | 0.106 | > 100 | 0.277 | > 81.2 | 0.601 | 56.3 | 0.516 | > 55.9 | 0.084 | > 100 | 1.15 | > 100 | 0.0468 | 5.55 | 0.043 | 0.199 | 0.0657 | 30.7 | 0.263 | –
CCOC(=O)C(=Cc1ccccc1Br)C(=O)OCC | – | 6.01 | – | 30.9 | – | 8.99 | – | 36.9 | – | 0.723 | – | 6.01 | – | > 100 | – | 8.32 | – | 4.97 | – | 2.68
CC(C)(C)c1ccc(-c2nnc(SCc3ccc(Cl)cc3)n2-c2cccc(C(F)(F)F)c2)cc1 | – | > 100 | – | > 100 | – | 97.3 | – | > 100 | – | 31.5 | – | > 100 | – | > 100 | – | > 100 | – | > 100 | – | > 100
Cc1nc2cc(O)c(O)cc2cc1Oc1ccc(NC(=O)Nc2ccc(Cl)c(Cl)c2)cc1 | 3.37 | 17.9 | 12.8 | > 32.5 | 11.8 | > 32.5 | 2.49 | > 32.5 | 1.56 | 12.3 | 10.1 | > 32.5 | 8.74 | > 32.5 | 8.86 | 22.7 | 9.24 | > 32.5 | 7.26 | 25.2
COC(=O)c1ccc2c(c1)nc(-c1ccc(Cl)cc1)n2-c1cc(C(C)(C)C)[nH]n1 | 3 | 9.34 | 1.72 | 7.16 | 4.09 | 44 | 4.62 | 27 | 3.23 | > 100 | 4.31 | > 100 | 2.72 | 7.35 | 2.54 | 8.95 | 1.57 | 5.77 | 3.69 | 25.1
Fc1ccc(Nc2nc(Nc3ccc(-c4nc5ccccc5[nH]4)cc3)nc(N3CCCC3)n2)cc1 | 3.08 | 10.4 | 2.16 | 5.82 | 14.2 | 34.9 | 1.87 | 4.35 | 0.927 | 6.5 | 3.93 | 19.1 | 2.89 | 12.1 | 2.08 | 4.26 | 2.17 | 4.57 | 4.21 | 15.3
COC(=O)c1c(-c2ccccc2)csc1NC(=O)c1c(-c2ccccc2)noc1C | 0.995 | > 100 | > 100 | > 100 | 1.56 | > 100 | 7.66 | > 100 | 0.282 | > 100 | 1.07 | > 100 | 1.5 | > 100 | 0.655 | > 100 | 0.762 | 3.97 | 1.98 | > 100
COc1ccc(C2CC(c3cc(OC)c(OC)c(OC)c3)=NN2)cc1 (stereo not drawn) | 26.2 | > 100 | 14.4 | 98.3 | 23.8 | > 100 | 22.5 | > 100 | 1.01 | 4.43 | 15.6 | > 100 | 6.67 | 94.8 | 5.88 | 36.6 | 9.71 | 92 | 33.9 | > 100
C[n+]1c2ccccc2c(NC2CCNCC2)c2[nH]c3ccccc3c21 | 4.68 | 32.1 | 0.116 | 0.82 | 0.384 | 2.52 | 0.762 | 7.19 | 1.7 | > 100 | 0.269 | 2.2 | > 100 | > 100 | 1.48 | 6.83 | – | 0.46 | 0.2 | 4.32
O=C(CC1C(=O)Nc2ccccc2S1=O)Nc1cccc(Cl)c1 (stereo not drawn) | – | > 100 | – | > 100 | – | > 76.4 | – | 34.4 | – | 22.1 | – | > 88.9 | – | 49.8 | – | 43.7 | – | 45.6 | – | > 100
COC(=O)c1oc2c(C(=O)/C=C/c3ccc(OC)cc3)c(OCCCN3CCCCC3)ccc2c1C | 1.03 | 2.54 | 2.58 | – | 2.32 | 6.38 | 1.69 | 3.78 | 1.45 | 3.78 | 2.1 | 8.92 | 2.31 | – | 1.45 | 2.91 | 0.066 | 0.487 | 1.18 | 2.57

Reference: PubChem BioAssay (NCI)
